{"source": "patent US5498605A", "about": "(priority 1994, dated 1996)", "key": {"A1 adenosine receptors": {"target": "T1, A1 adenosine receptors (Rattus norvegicus, UniProt P25099)", "T1 construct": "Rat cerebral cortical membranes and striatal membranes were prepared; from tissue; host or cells: rat cerebral cortical membranes", "T1 sequence (P25099 1-326)": "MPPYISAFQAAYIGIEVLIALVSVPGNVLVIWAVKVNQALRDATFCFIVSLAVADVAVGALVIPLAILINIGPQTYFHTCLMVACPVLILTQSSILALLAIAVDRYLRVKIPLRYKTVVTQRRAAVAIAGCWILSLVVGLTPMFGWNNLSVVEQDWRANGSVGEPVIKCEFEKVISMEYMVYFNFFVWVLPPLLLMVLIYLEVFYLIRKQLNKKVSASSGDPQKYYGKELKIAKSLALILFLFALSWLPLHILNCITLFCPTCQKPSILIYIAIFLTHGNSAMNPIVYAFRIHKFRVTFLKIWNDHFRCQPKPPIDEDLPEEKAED", "assay": "Inhibition of [3H]N6-phenylisopropyladenosine binding to A1 adenosine receptors in rat cerebral cortex membranes", "description": "Bound and free radioligand were separated by addition of 4 mL of a solution containing 50 mM Tris hydrochloride, at pH 7.4 at 5° C., followed by vacuum filtration using a Brandel Cell Harvester (Brandel, Gaithersburg, Md.) and a Whatman GF/B glass fiber filter with additional washes totaling 12 mL of buffer.\n(§1) At least seven different concentrations spanning four orders of magnitude, adjusted appropriately for the IC50 of each compound, were used."}, "[1]": {"assay": "Sedation in rats after i.p. injection", "type": "in vivo, rat", "details": "25 and 50 mg/kg i.p., during one hour"}, "lipolysis [2]": {"system": "lipolysis", "assay": "In vivo lipolysis (serum glycerol) in rats", "design": "species or system rat", "details": "for lowering of serum glycerol levels: at 60 min", "experimental": "Sprague Dawley rats (200-250 g) were fasted overnight. A blood sample was taken from the tail vein 10 sec before the subcutaneous injection of the drug in vehicle (10% DMSO in saline). Additional blood samples were taken from the tail vein at 30, 60 and 90 min post-injection and were kept on ice and centrifuged (1000 Xg) within one-half hour. A perchloric acid extract (3%) of plasma was neutralized with potassium hydroxide, 3-[N-morpholino]propanesulfonic acid, and then assayed for glycerol as described in Eggstein, et al., Methods of Enzymatic Analysis (H. U. Bermeyer ed., 1974), pp. 1825-1831."}, "[3]": {"system": "synaptic potentials (fEPSPs) in CA1 region of hippocampal slices", "assay": "Inhibition of synaptic potentials (fEPSPs) in hippocampal slices (species not specified for this result)", "design": "species or system adult rats and gerbils", "experimental": "Hippocampal slices were prepared from adult rats (200-300 g) and gerbils as described in Lee et al., Electrophysiology of Isolated Mammalian CNS Preparation (G. A. Kerkut and H. V. Wheat, eds. 1981), pp. 189-211. Field excitatory postsynaptic potentials (fEPSPs) were recorded in the stratum radiatum of the CA1 region in response to stimulation of Schaffer collateral/commisural afferents. Slices were superfused continuously with artificial cerebrospinal fluid (ACSF; described in Lee et al., and fEPSPs were sampled every 15 seconds.\nThe amplitude of fEPSPs responses was measured on-line and plotted over the time course of each experiment. The magnitude of the inhibitory effect of a compound on fEPSP amplitude was expressed as the percentage inhibition, according to the formula: Percentage inhibition=[(Amplitude in ACSF only--Amplitude in drug)[…]Amplitude in ACSF only]×100."}, "[4]": {"assay": "Rectal temperature in rats", "type": "in vivo, rat", "details": "Sprague Dawley rats, vehicle caused small rise (approximately 1° C.)", "experimental": "Rectal temperature was then recorded."}, "lipolysis [5]": {"system": "lipolysis", "assay": "In vivo lipolysis (serum glycerol) in rats", "design": "species or system rat", "details": "post i.p. injection"}, "A2 adenosine receptors": {"target": "A2 adenosine receptors (Rattus norvegicus, UniProt P30543)", "sequence (P30543 whole entry)": "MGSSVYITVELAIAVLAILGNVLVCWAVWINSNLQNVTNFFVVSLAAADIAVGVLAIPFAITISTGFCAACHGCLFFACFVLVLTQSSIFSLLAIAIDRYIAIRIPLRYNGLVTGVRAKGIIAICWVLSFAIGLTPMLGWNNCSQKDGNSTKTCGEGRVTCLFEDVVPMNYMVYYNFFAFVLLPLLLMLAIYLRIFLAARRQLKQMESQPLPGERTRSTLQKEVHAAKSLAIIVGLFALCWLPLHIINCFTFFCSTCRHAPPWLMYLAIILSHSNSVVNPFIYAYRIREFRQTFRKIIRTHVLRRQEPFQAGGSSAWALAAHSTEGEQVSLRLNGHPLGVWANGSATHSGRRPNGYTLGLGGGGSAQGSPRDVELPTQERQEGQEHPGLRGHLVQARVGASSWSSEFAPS", "assay": "Inhibition of [3H]CGS 21680 binding to A2 receptors in rat striatal membranes", "design": "Rat cerebral cortical membranes and striatal membranes were prepared; from tissue; host or cells: rat striatal membranes", "details": "rat striatum", "description": "Membranes (about 80 μg protein, 5 mg wet weight, per tube) were incubated for one hour at 25° C. in a total volume of 1 mL. […] Filtration was carried out using a Brandel Cell Harvester, as above.\nas §1"}}, "data": [{"smiles": "O=S(=O)(O)c1ccc(CCCNc2ncnc3c2ncn3[C@@H]2O[C@H](CO)[C@@H](O)[C@H]2O)cc1", "note": "[3-p-sulfophenylpropyl, N^6-3-p-sulfophenylpropyladenosine]", "values": [{"measurement": "Ki", "setting": "A1 adenosine receptors; rat brain, vs 1.0 nM [3H]PIA, read-out: A1-Receptor Ki", "result": "610 ± 39", "unit": "nM"}, {"measurement": "affinity for the A1 cortical receptors (in words)", "setting": "A1 adenosine receptors; rat cerebral cortex", "result": "demonstrated affinity"}, {"measurement": "sedation", "setting": "[1]", "result": "moderate sedation"}, {"measurement": "lowering of serum glycerol levels", "setting": "lipolysis [2]; 0.5 mg/kg", "result": 30, "unit": "%"}, {"measurement": "lowering of serum glycerol levels", "setting": "lipolysis [2]; 1.0 mg/kg", "result": 34, "unit": "%"}, {"measurement": "effect on serum glycerol levels (inhibition of lipolysis, in words)", "setting": "lipolysis [2]; doses of 0.1-1.0 mmol/kg", "result": "lower serum glycerol levels"}, {"measurement": "onset of action", "setting": "[3]; compared with adenosine and CPA", "result": "slightly slower onset of action in this assay than adenosine itself, but a faster onset of action than CPA"}, {"measurement": "IC50", "setting": "[3]; hippocampal slices", "result": 1700, "unit": "nM"}, {"measurement": "agonist action", "setting": "[3]; hippocampal slices", "result": "clearly acts as an agonist"}, {"measurement": "rectal temperature", "setting": "[4]; i.c.v.", "result": "caused rectal temperature depression"}, {"measurement": "rectal temperature", "setting": "[4]; i.p.", "result": "caused rectal temperature depression"}, {"measurement": "time of maximum effect on serum glycerol", "setting": "lipolysis [5]", "result": "30 to 60", "unit": "min"}, {"measurement": "affinity for the A2 striatal receptors (in words)", "setting": "A2 adenosine receptors", "result": "demonstrated affinity"}]}]}
